molecular target: Voltage-dependent N-type calcium channel subunit alpha-1B (Homo sapiens, UniProt Q00975); test: In vitro N-type [Ca2+] channel blocking potency in IMR-32 human neuroblastoma cells; type: functional, cell-based
Sequence (Q00975 whole entry): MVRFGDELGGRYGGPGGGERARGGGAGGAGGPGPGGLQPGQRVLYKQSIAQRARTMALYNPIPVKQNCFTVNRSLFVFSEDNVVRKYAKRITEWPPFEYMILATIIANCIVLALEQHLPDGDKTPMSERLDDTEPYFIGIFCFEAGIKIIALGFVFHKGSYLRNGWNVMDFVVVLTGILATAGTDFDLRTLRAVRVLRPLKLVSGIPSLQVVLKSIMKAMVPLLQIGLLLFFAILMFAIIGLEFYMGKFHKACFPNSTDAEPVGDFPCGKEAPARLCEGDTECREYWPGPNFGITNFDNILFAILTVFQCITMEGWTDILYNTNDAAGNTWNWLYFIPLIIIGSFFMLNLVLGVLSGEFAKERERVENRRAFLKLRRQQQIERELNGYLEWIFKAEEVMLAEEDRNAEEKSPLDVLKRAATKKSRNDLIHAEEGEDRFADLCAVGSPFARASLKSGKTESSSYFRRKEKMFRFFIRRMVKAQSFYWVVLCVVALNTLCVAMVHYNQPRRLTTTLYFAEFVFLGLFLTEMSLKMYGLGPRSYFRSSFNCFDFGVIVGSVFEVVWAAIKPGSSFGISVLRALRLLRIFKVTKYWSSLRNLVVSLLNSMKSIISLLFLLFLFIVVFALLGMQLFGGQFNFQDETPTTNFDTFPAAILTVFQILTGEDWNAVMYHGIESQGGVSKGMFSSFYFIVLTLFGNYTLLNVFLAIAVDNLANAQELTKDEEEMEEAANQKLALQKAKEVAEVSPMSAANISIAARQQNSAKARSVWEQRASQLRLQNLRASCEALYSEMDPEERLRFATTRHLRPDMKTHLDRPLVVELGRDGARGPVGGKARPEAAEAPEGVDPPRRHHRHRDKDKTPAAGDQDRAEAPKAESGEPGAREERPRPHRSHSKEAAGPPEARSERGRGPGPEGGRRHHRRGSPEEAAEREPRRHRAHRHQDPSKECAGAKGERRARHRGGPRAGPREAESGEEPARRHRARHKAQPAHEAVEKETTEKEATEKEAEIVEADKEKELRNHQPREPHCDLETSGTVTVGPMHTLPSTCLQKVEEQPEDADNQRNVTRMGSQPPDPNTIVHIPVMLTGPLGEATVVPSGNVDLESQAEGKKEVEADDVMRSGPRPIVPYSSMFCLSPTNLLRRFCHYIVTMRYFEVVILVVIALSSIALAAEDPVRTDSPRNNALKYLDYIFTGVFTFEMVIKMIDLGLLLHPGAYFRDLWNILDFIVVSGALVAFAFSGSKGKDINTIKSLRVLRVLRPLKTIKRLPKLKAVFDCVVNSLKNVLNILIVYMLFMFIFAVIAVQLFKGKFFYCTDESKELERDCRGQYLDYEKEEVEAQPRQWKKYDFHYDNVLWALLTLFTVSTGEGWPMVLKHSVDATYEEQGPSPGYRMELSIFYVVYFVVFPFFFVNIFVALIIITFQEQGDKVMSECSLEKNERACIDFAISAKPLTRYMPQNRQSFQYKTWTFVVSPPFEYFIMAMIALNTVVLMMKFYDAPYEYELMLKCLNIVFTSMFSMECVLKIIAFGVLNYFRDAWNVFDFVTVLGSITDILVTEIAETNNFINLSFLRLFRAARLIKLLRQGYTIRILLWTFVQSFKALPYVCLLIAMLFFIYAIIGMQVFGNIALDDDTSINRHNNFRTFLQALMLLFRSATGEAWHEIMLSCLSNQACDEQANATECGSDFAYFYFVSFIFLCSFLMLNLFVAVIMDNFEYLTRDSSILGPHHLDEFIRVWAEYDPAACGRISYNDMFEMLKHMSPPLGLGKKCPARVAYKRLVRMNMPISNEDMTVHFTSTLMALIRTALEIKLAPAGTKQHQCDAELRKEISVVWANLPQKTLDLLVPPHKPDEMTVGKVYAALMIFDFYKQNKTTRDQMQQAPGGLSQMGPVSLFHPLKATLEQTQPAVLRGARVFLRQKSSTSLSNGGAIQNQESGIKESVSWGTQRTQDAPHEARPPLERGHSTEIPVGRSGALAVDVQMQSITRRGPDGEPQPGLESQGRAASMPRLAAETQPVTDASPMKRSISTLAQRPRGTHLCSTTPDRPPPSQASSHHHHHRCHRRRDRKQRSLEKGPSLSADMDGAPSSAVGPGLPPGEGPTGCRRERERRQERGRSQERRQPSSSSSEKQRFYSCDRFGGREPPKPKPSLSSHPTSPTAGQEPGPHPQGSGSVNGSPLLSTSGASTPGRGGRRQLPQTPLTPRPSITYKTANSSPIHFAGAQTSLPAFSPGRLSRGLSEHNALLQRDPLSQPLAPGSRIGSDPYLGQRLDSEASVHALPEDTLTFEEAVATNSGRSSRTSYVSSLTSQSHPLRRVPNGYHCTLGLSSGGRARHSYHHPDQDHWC

SMILES	IC50 [nM]
CC(C)CCN1CCCCC1C(=O)N[C@@H](Cc1ccc(OC(=O)c2ccccc2)cc1)C(=O)OC(C)(C)C (some centres not stated)	1000
CC(C)CCN1CCCC(C)C1C(=O)N[C@@H](Cc1ccc(OC(=O)c2ccccc2)cc1)C(=O)OC(C)(C)C (some centres not stated)	1100
CC(C)CCN(C)CC(=O)N[C@@H](Cc1ccc(OC(=O)c2ccccc2)cc1)C(=O)NC(C)(C)C	1600
CC(C)CCN(C)[C@H](C(=O)N[C@@H](Cc1ccc(OC(=O)c2ccccc2)cc1)C(=O)NC(C)(C)C)C(C)C	830
CC(C)CCN1CCC(C(=O)N[C@@H](Cc2ccc(OC(=O)c3ccccc3)cc2)C(=O)OC(C)(C)C)CC1	1500
CC(C)CCN1CCN(C)CC1C(=O)N[C@@H](Cc1ccc(OC(=O)c2ccccc2)cc1)C(=O)OC(C)(C)C (some centres not stated)	1000

Now those with a lower IC50, led by results:

IC50 [nM]	SMILES
320	CC(C)CCN1C(C)CCCC1C(=O)N[C@@H](Cc1ccc(OC(=O)c2ccccc2)cc1)C(=O)OC(C)(C)C (some centres not stated)
490	CC(C)CCN1CCC(C(C)C)CC1C(=O)N[C@@H](Cc1ccc(OC(=O)c2ccccc2)cc1)C(=O)OC(C)(C)C (some centres not stated)
780	CC(C)CCN1CCC(C)CC1C(=O)N[C@@H](Cc1ccc(OC(=O)c2ccccc2)cc1)C(=O)OC(C)(C)C (some centres not stated)
300	CC(C)CCN[C@@H](CC(C)C)C(=O)N[C@@H](Cc1ccc(OC(=O)c2ccccc2)cc1)C(=O)NC(C)(C)C
400	CC(C)CCN[C@@H](CC(C)C)C(=O)N[C@@H](Cc1ccc(OC(=O)c2ccccc2)cc1)C(=O)OC(C)(C)C
370	CC(C)CCN(C)[C@H](CC(C)C)C(=O)N[C@@H](Cc1ccc(OC(=O)c2ccccc2)cc1)C(=O)NC(C)(C)C

Reference: ChEMBL document CHEMBL1131677, “Synthesis and biological evaluation of substituted 4-(OBz)phenylalanine derivatives as novel N-type calcium channel blockers” (Bioorg Med Chem Lett, 1999)
